According to patent US20250270170A1, “2,3-DIMETHOXY-5-METHYL-1,4-BENZOQUINONE ALKYL ALCOHOL DERIVATIVE AND USE THEREOF” (BEIJING ANJIANXI BIO-MEDICAL TECHNOLOGY CO., LTD., priority 2021, published 2025):
“And” between values parts separate entries of the source, which are not always exact repeats. Equal values may be shown once. “Also recorded” adds a separate entry of the source.

Experiments:
[1] = Example 3: body weight of NCI-N87 tumor-bearing nude mice; type: in vivo, BALB/c nude mice; conditions: for effect on body weight compared with blank control group: NCI-N87 tumor-bearing nude mice, summary of Table 6
Experimental: The NCI-N87 cells in the logarithmic growth phase were collected, counted and resuspended in a serum-free RPMI-1640 medium, and the cell concentration was adjusted to 5×10^7 cells/mL. The cells were pipetted with a pipette to disperse them evenly, and the cells were put into a 50-mL centrifuge tube, which was placed in an ice box. A 1-mL syringe was used to draw the cell suspension, which was injected subcutaneously into the axilla of the front right limb of a nude mouse. Each animal was inoculated with 100 μL (5×10^6 cells/mouse) to establish an NCI-N87 transplanted tumor model in nude mice. After the inoculation, the animal status and tumor growth were regularly observed, and the tumor diameter was measured using an electronic vernier caliper. The data were input into an Excel spreadsheet to calculate the tumor volume. When the tumor volume reached 100 to 300 mm^3, 72 animals in good health and with similar tumor volumes were selected and divided into 9 groups (n=8) using randomized block method. The day of grouping was regarded as the first day of the assay (D1). After the start of the assay, the tumor diameter was measured twice a week, the tumor volume was calculated, and the animal body weight was also weighed and recorded. [table] The calculation formula of animal weight loss rate is: wherein BWt represents the animal body weight measured each time during the administration period; BWinitial represents the animal body weight when being grouped for administration. The assay data were calculated and processed statistically using Microsoft Office Excel 2007 software. Unless otherwise specified, the data were expressed as mean±standard error (Mean±SE), and t-test was used for comparison between two groups.

[2] = test system: VEGF/VEGFR/p-VEGFR and other proteins in NCI-N87 transplanted tumor tissues; experiment: Example 4: Western blot of NCI-N87 transplanted tumor tissue proteins; type: in vivo, nude mice; conditions: Western blot grayscale vs blank solvent group, compound of formula (I) 2 mg/kg
Experimental: Western Blot technology was used to quantitatively detect the expression of VEGF/VEGFR, Survivin and other proteins in tumor tissues. […] In this study, 50 μg of tumor tissue proteins were added to each well, and the working concentrations of the antibodies were diluted according to the instructions. Briefly: the tumor tissue was taken, lysed with an RIPA protein lysis solution containing 1% PMSF and mixed protease inhibitors, and centrifuged at 12000×g for 20 min to take the supernatant; the concentration of proteins was detected by BCA method; 10% SDS-PAGE gel electrophoresis was performed; the proteins from SDS-PAGE gel were transfered to a PVDF membrane by semi-dry […]; the membrane was blocked with a fast blocking buffer for 10 minutes, and a primary antibody at corresponding working concentration was added, and incubated at 4° C. overnight; the membrane was washed with TBST for 3 times, and incubated with a secondary antibody at room temperature for 1 h; after washing the membrane three times, an image was developed and saved, and the grayscale values were analyzed with Image lab; the anti-Vinculin antibody was used as an internal reference control antibody.
The grayscale of the Western blot bands were calculated with Image J software, and Graphpad Prism 5 was used for related statistical processing. A two-sided t-test was used for comparison between two groups. P>0.05 means no significance (NS), P<0.05 is *, […], and P<0.001 is ***.

[3] = Example 7: serum UREA content; type: in vivo, nude mice
[4] = D16, DDP 4/4/5/5 mg/kg i.p. QW×4
[5] = D20, DDP 4/4/5/5 mg/kg i.p. QW×4
[6] = D23, DDP 4/4/5/5 mg/kg i.p. QW×4
[7] = D27, DDP 4/4/5/5 mg/kg i.p. QW×4
[8] = D30, DDP 4/4/5/5 mg/kg i.p. QW×4
[9] = D34, DDP 4/4/5/5 mg/kg i.p. QW×4
[10] = D37, DDP 4/4/5/5 mg/kg i.p. QW×4
[11] = D44, DDP 4/4/5/5 mg/kg i.p. QW×4

For `N.N.[Cl][Pt][Cl]` [DDP, cisplatin], the “Mean animal body weight” value ([1]; D13, DDP 4/4/5/5 mg/kg i.p. QW×4) was 18.5 ± 0.4 g, the “Mean animal body weight” value [1, 4] was 17.3 ± 0.4 g and the “body weight loss rate” value [1, 4] was “(6.2%)”. For the same compound, the “Mean animal body weight” value [1, 5] was 17.6 ± 0.4 g, the “body weight loss rate” value [1, 5] was “(4.8%)” and the “Mean animal body weight” value [1, 6] was 17.5 ± 0.4 g. The “body weight loss rate” value [1, 6] was “(5.1%)”, the “Mean animal body weight” value [1, 7] was 18.3 ± 0.6 g and the “body weight loss rate” value [1, 7] was “(1.1%)”. For the same compound, the “Mean animal body weight” value [1, 8] was 17.6 ± 0.4 g, the “body weight loss rate” value [1, 8] was “(4.7%)” and the “Mean animal body weight” value [1, 9] was 17.7 ± 0.4 g. The “body weight loss rate” value [1, 9] was “(4.3%)”, the “Mean animal body weight” value [1, 10] was 17.2 ± 0.4 g and the “body weight loss rate” value [1, 10] was “(6.8%)”. For the same compound, the “Mean animal body weight” value [1, 11] was 16.8 ± 0.4 g, the “body weight loss rate” value [1, 11] was “(8.9%)” and the “effect on body weight compared with blank control group” value [1] was “decreased significantly”. The “expression of CyclinD1” value [2] was “up-regulated”, the “expression of VEGFA” value [2] was “down-regulated” and the “expression of VEGFR2” value [2] was “up-regulated”. For the same compound, the “expression of anti-apoptotic protein Survivin” value [2] was “down-regulated”, the “expression of cell cycle regulatory protein P21” value [2] was “down-regulated” and the “expression of p-VEGFR2” value [2] was “down-regulated”. The “expression of β-catenin” value [2] was “up-regulated”, the “Serum UREA content, Mean” value ([3]; DDP 4/2/1/4 mg/kg IP) was 10.28 mmol serum^−1 and the “Serum UREA content, individual animals No1-No6” value ([3]; DDP 4/2/1/4 mg/kg IP) was 8.06 mmol serum^−1 and 12.81 mmol serum^−1 and 15.45 mmol serum^−1 and 8.28 mmol serum^−1 and 10.47 mmol serum^−1 and 6.62 mmol serum^−1.
In the case of `COC1=C(OC)C(=O)C(CCCCCCCCCCOC(=O)Cc2c(C)n(C(=O)c3ccc(Cl)cc3)c3ccc(OC)cc23)=C(C)C1=O` [compound of formula (I)], the “Mean animal body weight” value ([1]; D13, 2 mg/kg i.g. BID×28) was 18.3 ± 0.4 g, the “Mean animal body weight” value ([1]; D13, 6 mg/kg i.g. BID×28) was 17.6 ± 0.3 g and the “Mean animal body weight” value ([1]; D13, 18 mg/kg i.g. BID×28) was 17.9 ± 0.5 g. For the same compound, the “Mean animal body weight” value ([1]; D16, 2 mg/kg i.g. BID×28) was 18.2 ± 0.5 g, the “body weight loss rate” value ([1]; D16, 2 mg/kg i.g. BID×28) was “(0.41%)” and the “Mean animal body weight” value ([1]; D16, 6 mg/kg i.g. BID×28) was 17.6 ± 0.3 g. For the same compound, the “body weight loss rate” value ([1]; D16, 6 mg/kg i.g. BID×28) was “(0.28%)”, the “Mean animal body weight” value ([1]; D16, 18 mg/kg i.g. BID×28) was 17.7 ± 0.4 g and the “body weight loss rate” value ([1]; D16, 18 mg/kg i.g. BID×28) was “(1.0%)”. For the same compound, the “Mean animal body weight” value ([1]; D20, 2 mg/kg i.g. BID×28) was 18.2 ± 0.4 g, the “body weight loss rate” value ([1]; D20, 2 mg/kg i.g. BID×28) was “(0.27%)” and the “Mean animal body weight” value ([1]; D20, 6 mg/kg i.g. BID×28) was 17.5 ± 0.4 g. For the same compound, the “body weight loss rate” value ([1]; D20, 6 mg/kg i.g. BID×28) was “(0.50%)”, the “Mean animal body weight” value ([1]; D20, 18 mg/kg i.g. BID×28) was 17.8 ± 0.3 g and the “body weight loss rate” value ([1]; D20, 18 mg/kg i.g. BID×28) was “(0.56%)”. The “Mean animal body weight” value ([1]; D23, 2 mg/kg i.g. BID×28) was 18.5 ± 0.5 g, the “body weight loss rate” value ([1]; D23, 2 mg/kg i.g. BID×28) was “(−1.0%)” and the “Mean animal body weight” value ([1]; D23, 6 mg/kg i.g. BID×28) was 18.1 ± 0.5 g. The “body weight loss rate” value ([1]; D23, 6 mg/kg i.g. BID×28) was “(−2.7%)”, the “Mean animal body weight” value ([1]; D23, 18 mg/kg i.g. BID×28) was 18.0 ± 0.4 g and the “body weight loss rate” value ([1]; D23, 18 mg/kg i.g. BID×28) was “(−0.42%)”. The “Mean animal body weight” value ([1]; D27, 2 mg/kg i.g. BID×28) was 18.7 ± 0.5 g, the “body weight loss rate” value ([1]; D27, 2 mg/kg i.g. BID×28) was “(−2.5%)” and the “Mean animal body weight” value ([1]; D27, 6 mg/kg i.g. BID×28) was 18.3 ± 0.5 g. The “body weight loss rate” value ([1]; D27, 6 mg/kg i.g. BID×28) was “(−3.7%)”, the “Mean animal body weight” value ([1]; D27, 18 mg/kg i.g. BID×28) was 18.1 ± 0.3 g and the “body weight loss rate” value ([1]; D27, 18 mg/kg i.g. BID×28) was “(−1.0%)”. For the same compound, the “Mean animal body weight” value ([1]; D30, 2 mg/kg i.g. BID×28) was 18.9 ± 0.4 g, the “body weight loss rate” value ([1]; D30, 2 mg/kg i.g. BID×28) was “(−3.4%)” and the “Mean animal body weight” value ([1]; D30, 6 mg/kg i.g. BID×28) was 18.3 ± 0.4 g. For the same compound, the “body weight loss rate” value ([1]; D30, 6 mg/kg i.g. BID×28) was “(−4.0%)”, the “Mean animal body weight” value ([1]; D30, 18 mg/kg i.g. BID×28) was 18.4 ± 0.4 g and the “body weight loss rate” value ([1]; D30, 18 mg/kg i.g. BID×28) was “(−2.7%)”. For the same compound, the “Mean animal body weight” value ([1]; D34, 2 mg/kg i.g. BID×28) was 19.3 ± 0.5 g, the “body weight loss rate” value ([1]; D34, 2 mg/kg i.g. BID×28) was “(−5.8%)” and the “Mean animal body weight” value ([1]; D34, 6 mg/kg i.g. BID×28) was 18.5 ± 0.4 g. For the same compound, the “body weight loss rate” value ([1]; D34, 6 mg/kg i.g. BID×28) was “(−5.1%)”, the “Mean animal body weight” value ([1]; D34, 18 mg/kg i.g. BID×28) was 18.7 ± 0.4 g and the “body weight loss rate” value ([1]; D34, 18 mg/kg i.g. BID×28) was “(−4.3%)”. The “Mean animal body weight” value ([1]; D37, 2 mg/kg i.g. BID×28) was 19.5 ± 0.5 g, the “body weight loss rate” value ([1]; D37, 2 mg/kg i.g. BID×28) was “(−6.5%)” and the “Mean animal body weight” value ([1]; D37, 6 mg/kg i.g. BID×28) was 18.6 ± 0.4 g. For the same compound, the “body weight loss rate” value ([1]; D37, 6 mg/kg i.g. BID×28) was “(−5.8%)”, the “Mean animal body weight” value ([1]; D37, 18 mg/kg i.g. BID×28) was 18.8 ± 0.4 g and the “body weight loss rate” value ([1]; D37, 18 mg/kg i.g. BID×28) was “(−4.8%)”. The “Mean animal body weight” value ([1]; D44, 2 mg/kg i.g. BID×28) was 19.2 ± 0.6 g, the “body weight loss rate” value ([1]; D44, 2 mg/kg i.g. BID×28) was “(−5.2%)” and the “Mean animal body weight” value ([1]; D44, 6 mg/kg i.g. BID×28) was 19.0 ± 0.5 g. For the same compound, the “body weight loss rate” value ([1]; D44, 6 mg/kg i.g. BID×28) was “(−8.0%)”, the “Mean animal body weight” value ([1]; D44, 18 mg/kg i.g. BID×28) was 19.1 ± 0.4 g and the “body weight loss rate” value ([1]; D44, 18 mg/kg i.g. BID×28) was “(−6.9%)”. For the same compound, the “effect on body weight compared with blank control group” value [1] was “no significant effect”, the “expression of CyclinD1” value ([2]; 2 mg/kg) was “down-regulated; also recorded: downregulated” and the “expression of PCNA” value ([2]; 2 mg/kg) was “up-regulated; also recorded: upregulated”. For the same compound, the “expression of VEGFA” value ([2]; 2 mg/kg) was “down-regulated; also recorded: downregulated”, the “expression of VEGFR2” value ([2]; 2 mg/kg) was “down-regulated; also recorded: downregulated” and the “expression of anti-apoptotic protein Survivin” value ([2]; 2 mg/kg) was “down-regulated; also recorded: downregulated”. For the same compound, the “expression of cell cycle regulatory protein P21” value ([2]; 2 mg/kg) was “up-regulated; also recorded: upregulated”, the “expression of p-VEGFR2” value ([2]; 2 mg/kg) was “down-regulated; also recorded: downregulated” and the “expression of pro-apoptotic Bax” value ([2]; 2 mg/kg) was “down-regulated; also recorded: downregulated”. For the same compound, the “expression of β-catenin” value ([2]; 2 mg/kg) was “down-regulated; also recorded: downregulated” and the “Serum UREA content, Mean” value ([3]; mouse, in vivo, po, 16 mg/kg) was 7.83 mmol serum^−1.
